Experimental data as given in patent US7345058B2, “Pyrazoles” (Hoffmann-La Roche Inc., priority 2005, dated 2008).

Molecular target: Purified human HSD1 (Homo sapiens, UniProt P28845)
Assay: In vitro inhibition of 11β-HSD1 (time-resolved fluorescence, cortisone to cortisol)
Assay type: biochemical
Conditions: purified human HSD1, cortisone substrate, incubated at 37° C. for 30 min
Experimental: Purified human HSD1 was diluted in 50 mM Tris-HCl, 100 mM NaCl, 0.1 mg/ml BSA, 0.02% Lubrol, 20 mM MgCl2, 10 mM glucose 6-phosphate, 0.4 mM NADPH, 60 U/ml glucose 6-phosphate dehydrogenase to a concentration of 1.5 ug/ml (Enzyme Solution). Cortisone (100 uM) in DMSO was diluted to 1 uM with 50 mM Tris-HCl, 100 mM NaCl (Substrate Solution). Testing compounds (40 uM) in DMSO were diluted 3 fold in series in DMSO and further diluted 20 fold in Substrate Solution. Enzyme Solution (10 ul/well) was added into 384 well microtiter plates followed by diluted compound solutions (10 ul/well) and mixed well. Samples were then incubated at 37° C. for 30 min. EDTA/biotin-cortisol solution (10 ul/well) in 28 mM EDTA, 100 nM biotin-cortisol, 50 mM Tris-HCl, 100 mM NaCl was then added followed by 5 ul/well of anti-cortisol antibody (3.2 ug/ml) in 50 mM Tris-HCl, 100 mM NaCl, 0.1 mg/ml BSA and the solution was incubated at 37° C. for 30 min. Five ul per well of Eu-conjugated anti-mouse IgG (16 nM) and APC-conjugated streptavidin (160 nM) in 50 mM Tris-HCl, 100 mM NaCl, 0.1 mg/ml BSA were added and the solution was incubated at room temperature for 2 hours. Signals were quantitated by reading time-resolved fluorescence on a Victor 5 reader (Wallac).
Percent inhibition of HSD 1 activity by an agent at various concentrations was calculated by the formula % Inhibition=100*[1−(Fs−Fb)/(Ft−Fb)], where: • Fs is the fluorescence signal of the sample which included the agent, • Fb is the fluorescence signal in the absence of HSD1 and agent, • Ft is the fluorescence signal in the presence of HSD1, but no agent.
The inhibitory activities of test compounds were determined by the IC50s, or the concentration of compound that gave 50% inhibition.

Sequence of Purified human HSD1 (P28845 whole entry): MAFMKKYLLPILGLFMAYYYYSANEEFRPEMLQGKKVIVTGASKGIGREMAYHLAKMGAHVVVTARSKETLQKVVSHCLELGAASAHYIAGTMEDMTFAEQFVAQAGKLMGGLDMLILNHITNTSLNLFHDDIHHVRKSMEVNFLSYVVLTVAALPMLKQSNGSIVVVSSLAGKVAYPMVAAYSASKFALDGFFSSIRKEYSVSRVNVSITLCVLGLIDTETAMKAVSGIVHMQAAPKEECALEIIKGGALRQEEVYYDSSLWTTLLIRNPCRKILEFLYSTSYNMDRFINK

Structure (SMILES)	IC50 [nM]
Cn1ncc(C(=O)N2CCCC(Cc3ccccc3)C2)c1-n1cccc1 (stereo not shown) [Example 106, (3-Benzyl-piperidin-1-yl)-(1-meth-yl-5-pyrrol-1-yl-1H-py-razol-4-yl)-methanone]	1480
Cn1ncc(C(=O)N2CCCC3CCCCC32)c1-c1cccc(C=O)c1 (stereo not shown) [Example 21, 3-[2-Methyl-4-(octa-hydro-quinoline-1-carbo-nyl)-2H-pyra-zol-3-yl]-benzaldehyde]	1000
Cn1ncc(C(=O)N2CCCC3CCCCC32)c1-c1ccc(C(F)(F)F)c(Cl)c1 (stereo not shown) [Example 52, [5-(3-Chloro-4-tri-fluoromethyl-phenyl)-1-meth-yl-1H-pyra-zol-4-yl]-(octa-hydro-quinolin-1-yl)-meth-anone]	195
CC(C)c1cccc(-c2c(C(=O)N3CCCC4CCCCC43)cnn2C)c1 (stereo not shown) [Example 12, [5-(3-Isopropyl-phenyl)-1-methyl-1H-py-razol-4-yl]-(octa-hydro-quinolin-1-yl)-meth-anone]	59
Cn1ncc(C(=O)N2CCCC3CCCCC32)c1-c1cccc(C(F)(F)F)c1 (stereo not shown) [Example 49, [1-Methyl-5-(3-tri-fluoromethyl-phenyl)-1H-py-razol-4-yl]-(octa-hydro-quinolin-1-yl)-meth-anone]	160
Cn1ncc(C(=O)N2CCCC3CCCCC32)c1-c1ccc(CO)cc1 (stereo not shown) [Example 67, [5-(4-Hydroxy-methyl-phenyl)-1-meth-yl-1H-pyra-zol-4-yl]-(octa-hydro-quinolin-1-yl)-meth-anone]	121
Cn1ncc(C(=O)N2CCCC3CCCCC32)c1-c1cnc2ccccc2c1 (stereo not shown) [Example 19]	189
Cn1ncc(C(=O)N2CCCC3CCCCC32)c1-c1cccc(O)c1 (stereo not shown) [Example 59, [5-(3-Hydroxy-phe-nyl)-1-methyl-1H-pyra-zol-4-yl]-(octa-hydro-quinolin-1-yl)-meth-anone]	700
Cn1ncc(C(=O)NC2CCCCCCC2)c1-n1cccc1 [Example 96, 1-Methyl-5-pyrrol-1-yl-1H-py-razole-4-carboxylic acidcyclooctylamide]	58
Cn1ncc(C(=O)N2CCC(Cl)C3CCCCC32)c1-c1ccccc1 (stereo not shown) [Example 36]	600
CCC1CCCCN1C(=O)c1cnn(C)c1-c1ccccc1 (stereo not shown) [Example 107, (2-Ethyl-piperidin-1-yl)-(1-meth-yl-5-phe-nyl-1H-pyrazol-4-yl)-methanone]	260
CCOc1ccc(-c2c(C(=O)N3CCCC4CCCCC43)cnn2C)c(Cl)c1 (stereo not shown) [Example 82, [5-(2-Chloro-4-eth-oxy-phenyl)-1-meth-yl-1H-pyrazol-4-yl]-(octa-hydro-quinolin-1-yl)-meth-anone]	21
Cn1ncc(C(=O)N2CCCC3CCCCC32)c1-c1ccc([N+](=O)[O-])cc1 (stereo not shown) [Example 55, [1-Methyl-5-(4-ni-tro-phenyl)-1H-pyra-zol-4-yl]-(octa-hydro-quinolin-1-yl)-methanone]	552
CSc1ccc(-c2c(C(=O)N3CCCC4CCCCC43)cnn2C)cc1 (stereo not shown) [Example 33]	78
Cn1ncc(C(=O)N2CCCC3CCCCC32)c1-c1ccc(F)c(Cl)c1 (stereo not shown) [Example 39, [5-(3-Chloro-4-fluoro-phenyl)-1-meth-yl-1H-pyrazol-4-yl]-(octa-hydro-quinolin-1-yl)-meth-anone]	208
Cc1c(Cl)cccc1-c1c(C(=O)N2CCCC3CCCCC32)cnn1C (stereo not shown) [Example 46, [5-(3-Chloro-2-meth-yl-phenyl)-1-meth-yl-1H-pyrazol-4-yl]-(octa-hydro-quinolin-1-yl)-meth-anone]	38
